{
  "source": "patent US20050008596A1",
  "about": "“Composition containing an oxidation-sensitive active principle and a polyisobutylene polymer” (L'OREAL, priority 2003, published 2005)",
  "test": "Accelerated storage test: decomposition of ascorbic acid in the composition after two months at 45° C., HPLC",
  "format": "physicochemical",
  "conditions": "formulated in the presence of Lubrizol 5603, compared with conventional emulsifier; even in the presence of oxygen",
  "method": "The aim of this test is to study the decomposition of an oxidation-sensitive hydrophilic active principle in a composition, after storage for two months at 45° C.\nThe degree of decomposition measured is given by the ratio: (C0-C2 months)/C0 with C0 being the concentration of ascorbic acid at t=0 and C2 months being the concentration of ascorbic acid at t=2 months.\nThe concentration of ascorbic acid is determined by the HPLC technique (Merck LaChrom system). The analytical conditions are as follows: • Column: Lichrosphere 100 RP18 (250 mm) • Eluant: 0.1M phosphate buffer, pH 2.1 • Flow rate: 1 ml/min • Detection at 257 nm. • Dilution of the sample such that the concentration of ascorbic acid is between 0.05 and 1 mg/ml.\nThe test was carried out with the composition Example 1, and with the composition of Comparative Example 1 which contains, instead of the polymer according to the invention, a conventionally used emulsifier, cyclopentasiloxane and PEG/PPG-18/18 dimethicone.",
  "data": [
    {"smiles": "O=C1O[C@H]([C@@H](O)CO)C(O)=C1O", "note": "[ascorbic acid]", "values": [
      {"measurement": "Increase of stability of the ascorbic acid", "result": 50, "unit": "%"}
    ]}
  ]
}
